From the NIST ThermoML archive (doi:10.1021/je500284p)
± gives the expanded uncertainty stated by the source.

Details: 101.33 kPa, Liquid

## NC=O [formamide]
298.15 K
  viscosity: 3.23 ± 0.17 mPa·s
303.15 K
  viscosity: 2.95 ± 0.16 mPa·s
308.15 K
  viscosity: 2.67 ± 0.15 mPa·s
313.15 K
  viscosity: 2.43 ± 0.14 mPa·s
318.15 K
  viscosity: 2.2 ± 0.13 mPa·s
323.15 K
  viscosity: 1.99 ± 0.12 mPa·s
328.15 K
  viscosity: 1.82 ± 0.11 mPa·s
333.15 K
  viscosity: 1.69 ± 0.11 mPa·s
338.15 K
  viscosity: 1.58 ± 0.11 mPa·s
343.15 K
  viscosity: 1.52 ± 0.1 mPa·s
348.15 K
  viscosity: 1.49 ± 0.1 mPa·s
